Marks after values point to notes of the source that are not given here.
Columns and labels:
5-Lipoxygenase = biological target: T1, 5-Lipoxygenase (Rattus norvegicus, UniProt P12527); test: 5-HETE production by RBL-1 high speed supernatant; assay type: biochemical
T1 construct: The activities of these enzymes in extracts of RBL-1 cells were assayed; host or cells: RBL-1 cells, disrupted by nitrogen cavitation; 10,000 x g or 100,000 x g supernatant
T1 sequence (P12527 1-673): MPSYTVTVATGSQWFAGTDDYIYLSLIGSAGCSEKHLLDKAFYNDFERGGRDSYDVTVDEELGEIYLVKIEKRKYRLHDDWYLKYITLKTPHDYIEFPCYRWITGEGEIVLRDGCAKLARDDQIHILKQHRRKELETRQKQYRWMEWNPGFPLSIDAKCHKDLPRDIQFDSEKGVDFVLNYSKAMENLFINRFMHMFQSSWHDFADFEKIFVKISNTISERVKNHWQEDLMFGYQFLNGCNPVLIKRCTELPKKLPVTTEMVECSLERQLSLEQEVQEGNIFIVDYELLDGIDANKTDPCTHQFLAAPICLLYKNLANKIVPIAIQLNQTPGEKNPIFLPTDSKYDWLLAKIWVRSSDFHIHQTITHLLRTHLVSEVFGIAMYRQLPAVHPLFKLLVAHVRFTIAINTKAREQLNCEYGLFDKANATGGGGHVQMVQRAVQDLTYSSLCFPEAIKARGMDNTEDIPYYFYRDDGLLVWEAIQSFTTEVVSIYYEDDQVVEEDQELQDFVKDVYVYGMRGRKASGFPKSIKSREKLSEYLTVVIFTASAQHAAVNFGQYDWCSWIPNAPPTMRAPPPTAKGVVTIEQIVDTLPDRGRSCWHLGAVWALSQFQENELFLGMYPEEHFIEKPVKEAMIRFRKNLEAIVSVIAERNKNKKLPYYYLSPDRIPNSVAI
Description: For in vitro experiments, compounds were dissolved at appropriate concentrations in ethanol or DMSO (dimethylsulfoxide) (final concentration <1.0%) and then diluted to final concentrations using the buffers indicated in the text.
The activities of these enzymes in extracts of RBL-1 cells were assayed using the method of Jakschik and Lee, Nature, 287, 51-52 (1980). RBL-1 cells were obtained from the American Type Culture Collection (#CRL 1378) and were grown at 37°C (5% CO₂ in air) in spinner culture in MEM supplemented with 10% heat inactivated fetal calf serum. Harvested cells were washed with 50 mM sodium phosphate buffer, pH 7.0, containing 1 mM EDTA and 0.1% gelatin, resuspended in fresh buffer (5 x 10⁷ cells/ml) and disrupted by nitrogen cavitation using the Parr bomb at 750 psi for 10 min. The broken cell extract was then centrifuged at 10,000 x g for 20 minutes and the supernatant centrifuged at 100,000 x g for 60 minutes. Aliquots (0.25 mls) of the supernatant were preincubated with or without drugs for 10 min, after which 10 ul CaCl₂ (50 mM) was added and the reaction was initiated with 2.5 ul of 2.5 mM arachidonic acid-1-¹⁴C (final concentration was […]; specific activity 20,000 dpm/nmole). After incubation for 3 min at 37°C, the reaction was terminated by addition of 2 volumes (0.5 ml) ice cold acetone and the sample was allowed to deproteinize on ice for 10 min prior to centrifugation at 1,000 x g for 10 min. The deproteinized supernatant was adjusted to pH 3.5 with 2N formic acid and extracted with 2 volumes of ice cold ethyl acetate. The extracted samples were dried under argon, redissolved in ethyl acetate and applied to Whatman LK5D thin layer chromatography (TLC) plates which were developed using the A-9 solvent system [organic phase of ethyl acetate: 2,2,5-trimethylpentane:acetic acid: water (110:50:20:10)] described by Hamberg and Samuelsson, J. Biol. Chem., 241, 257-263 (1966). Arachidonic acid, 5-HETE, di-HETE and PGD₂ were quantified with a Berthold LB 2832 autoscanner.
The 5-lipoxygenase and LTA₄ synthetase activities were further studied under the following conditions. An additional centrifugation of the RBL-1 supernatant was run at 100,000 x g for 60 min, to remove the particulate cyclooxygenase activity. Sample incubation was done under conditions similar to those described above, i.e., 2 mM CaCl₂ and 25 uM arachidonic acid-1-¹⁴C, however, with an incubation time of 5 min at […]. Under these conditions, only the 5-lipoxygenase pathway metabolites were detectable. The 5-HETE and di-HETEs were formed at a linear rate, and […] amounts of the arachidonic acid-1-¹⁴C substrate were utilized.

[1] = system: Carrageenan-Induced Cellular Infiltration; test: Carrageenan-induced air pouch inflammation; assay type: in vivo, Lewis rats; details: 100 mg/kg; 3 hours after carrageenan
Excerpt: (§1) In the following Examples where mice were used, they were male Balb/c mice (20-28 g), and where rats were used, they were male Lewis rats (180-210 g). All mice and rats were obtained from Charles River Breeding Laboratories, Kingston, N.Y. Within a single experiment, mice and rats were sex and age matched.
(§2) The compounds of Formula (IA) were used either as the free base or in the appropriate salt form. Levamisole was used as the hydrochloride salt. The compounds were homogenized in 0.5% tragacanth. Compounds were administered by gavage at the indicated dose in a final volume of 10 ml/kg. Nordihydroguaiaretic acid (NDGA) was solubilized in dimethylacetamide and diluted with olive oil for subcutaneous administration.
(§3) Rats were shaved on the dorsal flank, and then injected subcutaneously one day later with 20 ml of air to form a defined pouch, by the method of Sedgwick et al., J. Pathology, 141, 483-495 (1983). The air pouch was reinflated as necessary over the next 6 days. To assay anti-inflammatory activity, animals were treated orally with test compound or vehicle (10 ml/kg) one hour before injection of 2.0 ml of a 2.0% carrageenan suspension containing 200 units/ml penicillin and 100 »g/ml streptomycin into the air pouch. In other experiments, 5 ml of 0.1% arachidonic acid in 0.2 M bicarbonate buffer was injected two hours after drug treatment. Animals were sacrificed using CO₂ three hours after instillation of irritant. The exudate was then aspirated from the pouch and neutrophil count and differential cell count were measured.

[2] = system: Arachidonic Acid-Induced Cellular Infiltration; test: Arachidonic acid-induced air pouch inflammation; assay type: in vivo, Lewis rats; details: 100 mg/kg; 3 hours after arachidonic acid
Excerpt: as §1, §2, §3

5-LO = biological target: T2, 5-LO (Rattus norvegicus, UniProt P12527); test: di-HETE production by RBL-1 high speed supernatant; assay type: biochemical
T2 construct: The activities of these enzymes in extracts of RBL-1 cells were assayed; host or cells: RBL-1 cells, disrupted by nitrogen cavitation; 10,000 x g or 100,000 x g supernatant
T2 sequence (P12527 1-673): T1 sequence (P12527 1-673)
Outline: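 RBL-1 cell 100,000 x g supernatant was preincubated 10 min with compound, then given CaCl₂ and 25 uM [¹⁴C]arachidonic acid for 3 min at 37°C. 5-HETE and di-HETE were quantified by TLC radioscanning. A variant re-centrifuged the supernatant and incubated 5 min at 5°C with 2 mM CaCl₂.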

Cyclooxygenase = Cyclooxygenase activity (PGD2) in 10,000 x g supernatant of RBL-1 cells; assay type: biochemical; details: text b252; RBL-1 cell extracts; read-out: IC₅₀ PGD₂ production

5-HETE (nM/ml) (5-Lipoxygenase; 1 uM): 8.86 ± 0.31 nM/ml
inhibition at 1 µM (5-Lipoxygenase; 1 uM, read-out: % Control (5-HETE)): 12.7%
5-HETE (nM/ml) (5-Lipoxygenase; 3.3 uM): 7.63 ± 0.44 nM/ml
inhibition at 3.3 µM (5-Lipoxygenase; 3.3 uM, read-out: % Control (5-HETE)): 24.9%
5-HETE (nM/ml) (5-Lipoxygenase; 10 uM): 5.57 ± 0.35 nM/ml
inhibition at 10 µM (5-Lipoxygenase; 10 uM, read-out: % Control (5-HETE)): 45.1%
5-HETE (nM/ml) (5-Lipoxygenase; 33 uM): 3.36 ± 0.07 nM/ml
inhibition at 33 µM (5-Lipoxygenase; 33 uM, read-out: % Control (5-HETE)): 67.9%
5-HETE (nM/ml) (5-Lipoxygenase; 100 uM): 1.08 ± 0.13 nM/ml
inhibition at 100 µM (5-Lipoxygenase; 100 uM, read-out: % Control (5-HETE)): 89.4%
Di-HETE (nM/ml) (5-LO; 1 uM): 1.56 ± 0.06 nM/ml
inhibition at 1 µM (5-LO; 1 uM, read-out: % Control (Di-HETE)): 19.7%
Di-HETE (nM/ml) (5-LO; 3.3 uM): 1.34 ± 0.12 nM/ml
inhibition at 3.3 µM (5-LO; 3.3 uM, read-out: % Control (Di-HETE)): 30.9%
Di-HETE (nM/ml) (5-LO; 10 uM): 0.88 ± 0.21 nM/ml
inhibition at 10 µM (5-LO; 10 uM, read-out: % Control (Di-HETE)): 54.8%
Di-HETE (nM/ml) (5-LO; 33 uM): 0.40 ± 0.08 nM/ml
inhibition at 33 µM (5-LO; 33 uM, read-out: % Control (Di-HETE)): 79.6%
Di-HETE (nM/ml) (5-LO; 100 uM): 0.03 ± 0.04 nM/ml
inhibition at 100 µM (5-LO; 100 uM, read-out: % Control (Di-HETE)): 98.3%
IC50 (5-LO; soluble extract of RBL-1 cells containing only lipoxygenase activity, read-out: IC₅₀ eicosanoid formation (di-HETE production)): 7.5 µM
IC50 (Cyclooxygenase): 100 µM
Structure (SMILES): Fc1ccc(-c2nc3n(c2-c2ccncc2)CCS3)cc1 [Compound 1, 5-(4-pyridyl)-6-(4-fluorophenyl)-2,3-dihydroimidazo[2,1-b]thiazole]
Cellular Infiltrate (Total x 10⁻⁶) MN [1]: 5.5 ± 3.8^e x 10⁻⁶
Cellular Infiltrate (Total x 10⁻⁶) PMN [1]: 2.6 ± 1.3^d x 10⁻⁶
Exudate Volume [1]: 1.0 ± 0.9 mL
Cellular Infiltrate (Total x 10⁻⁶) MN [2]: 1.5 ± 1.1^d x 10⁻⁶
Cellular Infiltrate (Total x 10⁻⁶) PMN [2]: 1.2 ± 0.7^e x 10⁻⁶
Exudate Volume [2]: 2.6 ± 0.8 mL

From patent EP0231622B1, “Inhibition of the 5-lipoxygenase pathway” (priority 1985, dated 1987)
